Reference: patent publication US12275715B2, “Pyridin-2(1H)-one quinolinone derivatives as mutant-isocitrate dehydrogenase inhibitors” (FORMA Therapeutics, Inc., priority 2014, dated 2025)

Key:
[1] = target: IDH1-R132H recombinant protein (Homo sapiens, UniProt O75874, R132H); experiment: IDH1-R132H enzymatic assay (NADPH consumption, diaphorase/resazurin readout); type: biochemical; settings: read-out: Enzyme IDH1 R132H Range
Protocol: (§1) Assays were performed in a 384-well black plate. […] After the plate was centrifuged briefly, an aliquot of 10 μL of 2 mM α-ketoglutarate and 20 μM NADPH solution prepared in assay buffer was then added to each well and the reaction was maintained at 25° C. for 45 minutes. An aliquot of 10 μL of diaphorase solution (0.15 U/mL diaphorase and 30 μM Resazurin in assay buffer) was added to each well. […] The IC50 of a given compound was calculated by fitting the dose response curve of inhibition of NADPH consumption at a given concentration with the four parameter logistic equation.

[2] = target: IDH1-R132C recombinant protein (Homo sapiens, UniProt O75874, R132C); experiment: IDH1-R132C enzymatic assay (NADPH consumption, diaphorase/resazurin readout); type: biochemical; settings: read-out: Enzyme IDH1 R132C Range
Sequence of IDH1-R132C recombinant protein (O75874 whole entry R132C): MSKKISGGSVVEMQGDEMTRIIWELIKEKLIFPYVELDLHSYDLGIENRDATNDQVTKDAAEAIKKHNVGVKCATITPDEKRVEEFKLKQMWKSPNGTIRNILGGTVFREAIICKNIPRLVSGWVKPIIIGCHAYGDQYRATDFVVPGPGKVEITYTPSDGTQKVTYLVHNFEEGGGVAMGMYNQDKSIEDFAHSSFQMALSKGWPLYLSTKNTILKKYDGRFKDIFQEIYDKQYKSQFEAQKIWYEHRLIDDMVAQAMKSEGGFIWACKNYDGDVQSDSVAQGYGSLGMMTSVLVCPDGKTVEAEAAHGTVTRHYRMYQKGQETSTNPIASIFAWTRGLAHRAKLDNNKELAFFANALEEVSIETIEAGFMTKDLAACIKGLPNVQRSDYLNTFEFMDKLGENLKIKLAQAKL
Protocol: as §1

[3] = test system: HCT116 isogenic IDH1-R132H mutant cells; experiment: Cellular 2-HG assay using HCT116 mutant IDH1 cells (R132H); type: cell-based; settings: Homo sapiens, HCT-116; cellular 2-HG inhibition, 24 hours, RapidFire mass spectrometry; read-out: HCT116 IDH1 R132H Range
Protocol: (§2) HCT116 isogenic IDH1-R132H and IDH1-R132C mutant cells were cultured in growth media (McCoy's 5A, 10% fetal bovine serum, 1× antibiotic-antimycotic solution and 0.3 mg/mL G418) in 5% CO2 in an incubator at 37° C. To prepare the assay, cells were trypsinized and resuspended in assay media (McCoy's 5A with no L-glutamine, 10% fetal bovine serum, 1× antibiotic-antimycotic solution and 0.3 mg/mL G418). An aliquot of 10,000 cells/100 μL was transferred to each well of a clear 96-well tissue culture plate. The cells were incubated in 5% CO2 at 37° C. in an incubator overnight to allow for proper cell attachment. An aliquot of 50 μL of compound containing assay media were then added to each well and the assay plate was kept in 5% CO2 at 37° C. in an incubator for 24 hours. The media was then removed from each well and 150 μL of a methanol/water mixture (80/20 v/v) was added to each well. The plates were kept at −80° C. freezer overnight to allow for complete cell lysis. An aliquot of 125 μL of extracted supernatant was analyzed by RapidFire high-throughout-mass spectrometry (Agilent) to determine the cellular 2-HG level. The IC50 of a given compound was calculated by fitting the dose response curve of cellular 2-HG inhibition at a given concentration with the four parameter logistic equation

[4] = test system: HCT116 isogenic IDH1-R132C mutant cells; experiment: Cellular 2-HG assay using HCT116 mutant IDH1 cells (R132C); type: cell-based; settings: Homo sapiens, HCT-116; cellular 2-HG inhibition, 24 hours, RapidFire mass spectrometry; read-out: HCT116 IDH1 R132C Range
Protocol: as §2

Sequence of IDH1-R132H recombinant protein (O75874 whole entry R132H): as the sequence (O75874 whole entry R132C) above, with C132H counted along it

| SMILES | IC50 [1] [nM] | IC50 [2] [nM] | IC50 [3] [nM] | IC50 [4] [nM] |
| --- | --- | --- | --- | --- |
| N#Cc1ccc(NCc2cc3cc(Cl)ccc3[nH]c2=O)c(=O)[nH]1 [Compound I-4, 5-{[(6-chloro-2-oxo-1,2-dihydroquinolin-3-yl)methyl]amino}-6-oxo-1,6-dihydropyridine-2-carbonitrile] | 10 to 100 | 100 to 1000 | – | – |
| O=c1[nH]c2ccc(Cl)cc2cc1CNc1ccc(Br)[nH]c1=O [Compound I-7, 3-{[(6-bromo-2-oxo-1,2-dihydropyridin-3-yl)amino]methyl}-6-chloro-1,2-dihydroquinolin-2-one] | > 1000 | – | – | – |
| O=c1[nH]c2ccc(Cl)cc2cc1CNc1ccc(C(F)(F)F)[nH]c1=O [Compound I-8, 6-chloro-3-({[2-oxo-6-(trifluoromethyl)-1,2-dihydropyridin-3-yl]amino}methyl)-1,2-dihydroquinolin-2-one] | > 1000 | – | – | – |
| Cn1c(C(F)(F)F)ccc(NCc2cc3cc(Cl)ccc3[nH]c2=O)c1=O [Compound I-9, 6-chloro-3-({[1-methyl-2-oxo-6-(trifluoromethyl)-1,2-dihydropyridin-3-yl]amino}methyl)-1,2-dihydroquinolin-2-one] | 100 to 1000 | > 10000 | – | – |
| COC(=O)c1c[nH]c(=O)c(NCc2cc3cc(Cl)ccc3[nH]c2=O)c1 [Compound I-10, methyl 5-{[(6-chloro-2-oxo-1,2-dihydroquinolin-3-yl)methyl]amino}-6-oxo-1,6-dihydropyridine-3-carboxylate] | > 1000 | – | – | – |
| Cn1cccc(NCc2cc3cc(Cl)c(OCc4ccccn4)cc3[nH]c2=O)c1=O [Compound I-12, 6-chloro-3-{[(1-methyl-2-oxo-1,2-dihydropyridin-3-yl)amino]methyl}-7-(pyridin-2-ylmethoxy)-1,2-dihydroquinolin-2-one] | 10 to 100 | > 10000 | – | – |
| C[C@H](Nc1ccc(C#N)n(C)c1=O)c1cc2cc(Cl)ccc2[nH]c1=O [Compound I-13, (S)-5-((1-(6-chloro-2-oxo-1,2-dihydroquinolin-3-yl)ethyl)amino)-1-methyl-6-oxo-1,6-dihydropyridine-2-carbonitrile] | – | – | 10 to 100 | 10 to 100 |
| C[C@H](Nc1ccc(C#N)[nH]c1=O)c1cc2cc(Cl)ccc2[nH]c1=O [Compound I-14, 5-{[(1S)-1-(6-chloro-2-oxo-1,2-dihydroquinolin-3-yl)ethyl]amino}-6-oxo-1,6-dihydropyridine-2-carbonitrile] | 10 to 100 | 100 to 1000 | 10 to 100 | 100 to 1000 |
| C[C@H](Nc1ccc(C#N)n(C)c1=O)c1cc2cc(Cl)c(F)cc2[nH]c1=O [Compound I-16, 5-{[(1S)-1-(6-chloro-7-fluoro-2-oxo-1,2-dihydroquinolin-3-yl)ethyl]amino}-1-methyl-6-oxo-1,6-dihydropyridine-2-carbonitrile] | 10 to 100 | 100 to 1000 | 10 to 100 | 100 to 1000 |
| C[C@H](Nc1ncc(C#N)n(C)c1=O)c1cc2cc(Cl)ccc2[nH]c1=O [Compound I-17, 5-{[(1S)-1-(6-chloro-2-oxo-1,2-dihydroquinolin-3-yl)ethyl]amino}-1-methyl-6-oxo-1,6-dihydropyrazine-2-carbonitrile] | 10 to 100 | 100 to 1000 | 10 to 100 | 100 to 1000 |
| C[C@@H](Nc1ccc(C#N)n(C)c1=O)c1cc2cc(Cl)c(F)cc2[nH]c1=O [Compound I-18, 5-{[(1R)-1-(6-chloro-7-fluoro-2-oxo-1,2-dihydroquinolin-3-yl)ethyl]amino}-1-methyl-6-oxo-1,6-dihydropyridine-2-carbonitrile] | > 1000 | > 10000 | – | – |
| CC(Nc1ccc(C#N)n(C)c1=O)c1cc2cc(Cl)c(F)cc2[nH]c1=O (centres unmarked) [Compound I-19, 5-{[1-(6-chloro-7-fluoro-2-oxo-1,2-dihydroquinolin-3-yl)ethyl]amino}-1-methyl-6-oxo-1,6-dihydropyridine-2-carbonitrile] | 10 to 100 | 100 to 1000 | 10 to 100 | 10 to 100 |
| COc1cc2[nH]c(=O)c([C@H](C)Nc3ccc(C#N)n(C)c3=O)cc2cc1Cl [Compound I-20, 5-{[(1S)-1-(6-chloro-7-methoxy-2-oxo-1,2-dihydroquinolin-3-yl)ethyl]amino}-1-methyl-6-oxo-1,6-dihydropyridine-2-carbonitrile] | – | – | < 10 | 10 to 100 |
| COc1cc2[nH]c(=O)c(C(C)Nc3ccc(C#N)n(C)c3=O)cc2cc1Cl (centres unmarked) [Compound I-22, 5-{[1-(6-chloro-7-methoxy-2-oxo-1,2-dihydroquinolin-3-yl)ethyl]amino}-1-methyl-6-oxo-1,6-dihydropyridine-2-carbonitrile] | – | – | < 10 | 10 to 100 |
| C[C@H](Nc1ccc(C#N)n(C)c1=O)c1cc2cc(Cl)c(OCc3ccccn3)cc2[nH]c1=O [Compound I-23, 5-{[(1S)-1-[6-chloro-2-oxo-7-(pyridin-2-ylmethoxy)-1,2-dihydroquinolin-3-yl]ethyl]amino}-1-methyl-6-oxo-1,6-dihydropyridine-2-carbonitrile] | – | – | < 10 | < 10 |
| CC(Nc1ccc(C#N)n(C)c1=O)c1cc2cc(Cl)c(OCc3ccccn3)cc2[nH]c1=O (centres unmarked) [Compound I-25, 5-({1-[6-chloro-2-oxo-7-(pyridin-2-ylmethoxy)-1,2-dihydroquinolin-3-yl]ethyl}amino)-1-methyl-6-oxo-1,6-dihydropyridine-2-carbonitrile] | – | – | < 10 | < 10 |
| C[C@H](Nc1ccc(C#N)n(C)c1=O)c1cc2cc(Cl)c(O[C@H](C)c3ccccn3)cc2[nH]c1=O [Compound I-26, 5-(((S)-1-(6-chloro-2-oxo-7-((R)-1-(pyridin-2-yl)ethoxy)-1,2-dihydroquinolin-3-yl)ethyl)amino)-1-methyl-6-oxo-1,6-dihydropyridine-2-carbonitrile] | – | – | < 10 | < 10 |
| C[C@H](Nc1ccc(C#N)n(C)c1=O)c1cc2cc(Cl)c(OCC3CC3)cc2[nH]c1=O [Compound I-27, 5-{[(1S)-1-[6-chloro-7-(cyclopropylmethoxy)-2-oxo-1,2-dihydroquinolin-3-yl]ethyl]amino}-1-methyl-6-oxo-1,6-dihydropyridine-2-carbonitrile] | – | – | < 10 | 10 to 100 |
| CC(Nc1ccc(C#N)n(C)c1=O)c1cc2cc(Cl)c(OCC3CC(F)(F)C3)cc2[nH]c1=O (centres unmarked) [Compound I-28, 5-[(1-{6-chloro-7-[(3,3-difluorocyclobutyl)methoxy]-2-oxo-1,2-dihydroquinolin-3-yl}ethyl)amino]-1-methyl-6-oxo-1,6-dihydropyridine-2-carbonitrile] | 10 to 100 | – | 10 to 100 | 10 to 100 |
| CC(C)Oc1cc2[nH]c(=O)c([C@H](C)Nc3ccc(C#N)n(C)c3=O)cc2cc1Cl [Compound I-29, 5-{[(1S)-1-[6-chloro-2-oxo-7-(propan-2-yloxy)-1,2-dihydroquinolin-3-yl]ethyl]amino}-1-methyl-6-oxo-1,6-dihydropyridine-2-carbonitrile] | – | – | 10 to 100 | 10 to 100 |
| C[C@H](Nc1ccc(C#N)n(C)c1=O)c1cc2cc(Cl)cc(F)c2[nH]c1=O [Compound I-30, 5-{[(1S)-1-(6-chloro-8-fluoro-2-oxo-1,2-dihydroquinolin-3-yl)ethyl]amino}-1-methyl-6-oxo-1,6-dihydropyridine-2-carbonitrile] | 10 to 100 | 100 to 1000 | 10 to 100 | 100 to 1000 |
| C[C@H](Nc1ccc(C#N)n(C)c1=O)c1cc2cc(Cl)cnc2[nH]c1=O [Compound I-31, 5-{[(1S)-1-(6-chloro-2-oxo-1,2-dihydro-1,8-naphthyridin-3-yl)ethyl]amino}-1-methyl-6-oxo-1,6-dihydropyridine-2-carbonitrile] | 100 to 1000 | 1000 to 10000 | 10 to 100 | > 1000 |
| C[C@@H](Nc1ccc(C#N)n(C)c1=O)c1nc2cc(Cl)ccc2[nH]c1=O [Compound I-32, 5-{[(1R)-1-(7-chloro-3-oxo-3,4-dihydroquinoxalin-2-yl)ethyl]amino}-1-methyl-6-oxo-1,6-dihydropyridine-2-carbonitrile] | 100 to 1000 | 1000 to 10000 | > 1000 | > 1000 |
| C[C@H](Nc1ccc(C#N)n(C)c1=O)c1nc2cc(Cl)ccc2[nH]c1=O [Compound I-33, 5-{[(1S)-1-(7-chloro-3-oxo-3,4-dihydroquinoxalin-2-yl)ethyl]amino}-1-methyl-6-oxo-1,6-dihydropyridine-2-carbonitrile] | 100 to 1000 | 1000 to 10000 | 100 to 1000 | > 1000 |
